Laboratory results: article PMC6915728 (Nature Communications, 2019)
Read-outs that look alike come from different tables or passages of the source.

Assays:
[1] = test system: E. coli BW25113 overexpression strains (ASKA plasmids); assay: Minimum inhibitory concentration (MIC), serial broth dilution, single-gene overexpression strains vs empty-vector control; assay type: cell-based, Escherichia coli; settings: broth dilution, MS medium, 100 µM IPTG, 30 °C, 20-24 h, OD600, 3 replicates
Protocol: Minimum inhibitory concentrations (MIC) were determined with a standard serial broth dilution technique with a minor modification. Specifically, instead of a two-fold dilution series, smaller AMP concentration steps were used (typically 1.2-fold) for two reasons. […] Second, gene overexpressions caused typically only small changes in the MICs of AMPs and therefore higher resolution was required. The protocol was as follows. From a stock solution of an AMP, 12-steps serial dilution was prepared in fresh MS medium in 96-well microtiter plates. Each AMP was represented in 11 different concentrations (3 wells per AMP concentration per strain). Three wells contained only medium to check the growth in the absence of AMP. After overnight growth in MS medium supplemented with chloramphenicol, bacterial strains were diluted 20-fold into fresh MS medium and grown until the cell density reached OD600 ~1. Cells were induced by 100 µM of IPTG and incubated for 1 h at 30 °C with continuous shaking at 300 rpm. Following incubation, approximately half-million cells were inoculated into the wells of the 96-well microtiter plate with a 96‐pin replicator. We used three independent replicates for each strain and the corresponding control. Two rows in the 96-well plate contained only MS medium in order to obtain the background OD value of the medium. Plates were incubated at 30 °C with continuous shaking at 300 rpm. After 20–24 h of incubation, OD600 values were measured in a microplate reader (Biotek Synergy 2).

[2] = test system: AMP-evolved E. coli lines; settings: ref Spohn et al 2019, cited from earlier work
Source text: Supplement 41467_2019_13618_MOESM13_ESM.xlsx, sheet "Figure 6 and S15" | column: A comprehensive dataset of antimicrobial susceptibility of AMP-adapted lines to antimicrobial peptides (AMPs).

E. coli = settings: previous laboratory evolution experiment; cited from earlier work
Source text: The results presented in this study may have important implications for the development of AMP-based therapies. Previous works reported several instances of cross-resistance interactions between membrane-targeting peptides (Supplementary Data 1), however, the potential for cross-resistance across AMPs with different modes of action has remained poorly understood. Specifically, while cross-resistance between host and therapeutic AMPs is certainly a realistic danger, not all AMPs are equally prone to cross-resistance. Given the immense diversity of AMPs with major differences in physicochemical ...

**Q.** With “FLGKVFKLASKVFKAVFGKV [R8, synthetic AMP (from linguistic model); cluster C1]” as the sequence, how does the “Relative MIC” value ([1]; overexpression strain mlaD, MIC of the overexpression strain / MIC of the control strain (wild-type carrying the empty plasmid)) read?
**A.** 1

**Q.** And the “Relative MIC” value ([1]; overexpression strain mzrA, MIC of overexpression strain / MIC of empty-plasmid control)?
**A.** 1.3

**Q.** And the “Relative MIC” value ([1]; overexpression strain yhbJ, MIC of overexpression strain / MIC of empty-plasmid control)?
**A.** 1

**Q.** And the “Relative change in MIC (MIC of the AMP-adpated line / MIC of the ancestral strain)” value ([2]; AMP-adapted line BAC5_3)?
**A.** 1

**Q.** And the “Relative change in MIC (MIC of the AMP-adpated line / MIC of the ancestral strain)” value ([2]; AMP-adapted line BAC5_5)?
**A.** 1

**Q.** What about the “Relative change in MIC (MIC of the AMP-adpated line / MIC of the ancestral strain)” value ([2]; AMP-adapted line BAC5_7) of the same sequence?
**A.** 1.1

**Q.** And the “Relative change in MIC (MIC of the AMP-adpated line / MIC of the ancestral strain)” value ([2]; AMP-adapted line BAC5_10)?
**A.** 1.1

**Q.** What about the “Relative change in MIC (MIC of the AMP-adpated line / MIC of the ancestral strain)” value ([2]; AMP-adapted line CAP18_2) of the same sequence?
**A.** 1.2

**Q.** What about the “Relative change in MIC (MIC of the AMP-adpated line / MIC of the ancestral strain)” value ([2]; AMP-adapted line CAP18_5) of the same sequence?
**A.** 1.1

**Q.** And the “Relative change in MIC (MIC of the AMP-adpated line / MIC of the ancestral strain)” value ([2]; AMP-adapted line CAP18_6)?
**A.** 1

**Q.** And the “Relative change in MIC (MIC of the AMP-adpated line / MIC of the ancestral strain)” value ([2]; AMP-adapted line CAP18_8)?
**A.** 1.1

**Q.** And the “Relative change in MIC (MIC of the AMP-adpated line / MIC of the ancestral strain)” value ([2]; AMP-adapted line CAP18_10)?
**A.** 1.2

**Q.** What about the “Relative change in MIC (MIC of the AMP-adpated line / MIC of the ancestral strain)” value ([2]; AMP-adapted line HBD3_3) of the same sequence?
**A.** 1

**Q.** What about the “Relative change in MIC (MIC of the AMP-adpated line / MIC of the ancestral strain)” value ([2]; AMP-adapted line HBD3_6) of the same sequence?
**A.** 1.2

**Q.** And the “Relative change in MIC (MIC of the AMP-adpated line / MIC of the ancestral strain)” value ([2]; AMP-adapted line HBD3_8)?
**A.** 1

**Q.** And the “Relative change in MIC (MIC of the AMP-adpated line / MIC of the ancestral strain)” value ([2]; AMP-adapted line HBD3_10)?
**A.** 1

**Q.** What about the “Relative change in MIC (MIC of the AMP-adpated line / MIC of the ancestral strain)” value ([2]; AMP-adapted line LL37_1) of the same sequence?
**A.** 1.2

**Q.** What about the “Relative change in MIC (MIC of the AMP-adpated line / MIC of the ancestral strain)” value ([2]; AMP-adapted line LL37_3) of the same sequence?
**A.** 1.2

**Q.** And the “Relative change in MIC (MIC of the AMP-adpated line / MIC of the ancestral strain)” value ([2]; AMP-adapted line LL37_6)?
**A.** 1

**Q.** And the “Relative change in MIC (MIC of the AMP-adpated line / MIC of the ancestral strain)” value ([2]; AMP-adapted line LL37_7)?
**A.** 1.1

**Q.** What about the “Relative change in MIC (MIC of the AMP-adpated line / MIC of the ancestral strain)” value ([2]; AMP-adapted line LL37_10) of the same sequence?
**A.** 1.2

**Q.** And the “Relative change in MIC (MIC of the AMP-adpated line / MIC of the ancestral strain)” value ([2]; AMP-adapted line PEX_1)?
**A.** 1.1

**Q.** What about the “Relative change in MIC (MIC of the AMP-adpated line / MIC of the ancestral strain)” value ([2]; AMP-adapted line PEX_4) of the same sequence?
**A.** 1.2

**Q.** And the “Relative change in MIC (MIC of the AMP-adpated line / MIC of the ancestral strain)” value ([2]; AMP-adapted line PEX_5)?
**A.** 1.1

**Q.** What about the “Relative change in MIC (MIC of the AMP-adpated line / MIC of the ancestral strain)” value ([2]; AMP-adapted line PEX_6) of the same sequence?
**A.** 1

**Q.** What about the “Relative change in MIC (MIC of the AMP-adpated line / MIC of the ancestral strain)” value ([2]; AMP-adapted line PEX_7) of the same sequence?
**A.** 1.2

**Q.** What about the “Relative change in MIC (MIC of the AMP-adpated line / MIC of the ancestral strain)” value ([2]; AMP-adapted line PR39_1) of the same sequence?
**A.** 1.1

**Q.** And the “Relative change in MIC (MIC of the AMP-adpated line / MIC of the ancestral strain)” value ([2]; AMP-adapted line PR39_2)?
**A.** 1

**Q.** And the “Relative change in MIC (MIC of the AMP-adpated line / MIC of the ancestral strain)” value ([2]; AMP-adapted line PR39_5)?
**A.** 1

**Q.** What about the “Relative change in MIC (MIC of the AMP-adpated line / MIC of the ancestral strain)” value ([2]; AMP-adapted line PR39_7) of the same sequence?
**A.** 1

**Q.** What about the “Relative change in MIC (MIC of the AMP-adpated line / MIC of the ancestral strain)” value ([2]; AMP-adapted line PR39_10) of the same sequence?
**A.** 1

**Q.** And the “Relative change in MIC (MIC of the AMP-adpated line / MIC of the ancestral strain)” value ([2]; AMP-adapted line PROA_2)?
**A.** 1

**Q.** And the “Relative change in MIC (MIC of the AMP-adpated line / MIC of the ancestral strain)” value ([2]; AMP-adapted line PROA_3)?
**A.** 1

**Q.** And the “Relative change in MIC (MIC of the AMP-adpated line / MIC of the ancestral strain)” value ([2]; AMP-adapted line PROA_7)?
**A.** 1

**Q.** And the “Relative change in MIC (MIC of the AMP-adpated line / MIC of the ancestral strain)” value ([2]; AMP-adapted line PROA_8)?
**A.** 1

**Q.** What about the “Relative change in MIC (MIC of the AMP-adpated line / MIC of the ancestral strain)” value ([2]; AMP-adapted line PROA_9) of the same sequence?
**A.** 1

**Q.** And the “Relative change in MIC (MIC of the AMP-adpated line / MIC of the ancestral strain)” value ([2]; AMP-adapted line PXB_2)?
**A.** 1

**Q.** And the “Relative change in MIC (MIC of the AMP-adpated line / MIC of the ancestral strain)” value ([2]; AMP-adapted line PXB_5)?
**A.** 1.7

**Q.** What about the “Relative change in MIC (MIC of the AMP-adpated line / MIC of the ancestral strain)” value ([2]; AMP-adapted line PXB_6) of the same sequence?
**A.** 1.9

**Q.** And the “Relative change in MIC (MIC of the AMP-adpated line / MIC of the ancestral strain)” value ([2]; AMP-adapted line PXB_8)?
**A.** 1.9

**Q.** And the “Relative change in MIC (MIC of the AMP-adpated line / MIC of the ancestral strain)” value ([2]; AMP-adapted line PXB_10)?
**A.** 1.2

**Q.** What about the “Emergence of resistant lines in laboratory evolution” value (E. coli) of the same sequence?
**A.** did not result in any significant resistant lines
